Among the data in US11731943B2, “Therapeutic compounds, compositions and methods of use thereof” (priority 2016, dated 2023) are Ki and IC50 values, retold here.

Where two headings read alike, the source gives them in different places.

Assay [1] has as its target isolated recombinant JAK1 kinase domain (Homo sapiens (Human), UniProt P23458). The assay can be described thus: JAK1 enzyme assay (Caliper LabChip, Ki). It counts as biochemical. In outline:
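Recombinant human JAK1 kinase domain phosphorylating an N-terminally 5-carboxyfluorescein-labelled JAK3-derived peptide, 30 min at 22 °C, stopped with EDTA (50 mM final). Phosphorylated fraction of total peptide read by Caliper LabChip mobility shift; Ki from Morrison tight-binding fit corrected for ATP competition (Ki=Ki,app/(1+[ATP]/Km,app)).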

Assay [2] deals with isolated recombinant JAK2 kinase domain (Homo sapiens (Human), UniProt O60674). The assay can be described thus: JAK2 enzyme assay (Caliper LabChip, Ki). It counts as biochemical. In outline:
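Recombinant human JAK1 or JAK2 kinase domain phosphorylating a 5-carboxyfluorescein-labelled JAK3-derived peptide; 30 min at 22 °C, stopped with EDTA (50 mM final). Phosphorylated product measured as a fraction of total peptide by Caliper LabChip mobility shift.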

Assay [3] concerns JAK1-dependent STAT6 phosphorylation downstream of IL-13 stimulation in BEAS-2B human bronchial epithelial cells. As to the kind of experiment: JAK1 pathway assay in BEAS-2B cells (IL-13-pSTAT6, MSD). The format is cell-based. Particulars: BEAS-2B cells, IL-13 stimulation, read-out: IL-13 p-STAT6 BEAS-2B IC50.

As a reminder, the Ki is a dissociation constant, usually derived from enzyme kinetics or from competition with a known ligand. For orientation: IC50 means the concentration that inhibits the measured activity by half.

isolated recombinant JAK2 kinase domain, sequence (O60674 849-1124): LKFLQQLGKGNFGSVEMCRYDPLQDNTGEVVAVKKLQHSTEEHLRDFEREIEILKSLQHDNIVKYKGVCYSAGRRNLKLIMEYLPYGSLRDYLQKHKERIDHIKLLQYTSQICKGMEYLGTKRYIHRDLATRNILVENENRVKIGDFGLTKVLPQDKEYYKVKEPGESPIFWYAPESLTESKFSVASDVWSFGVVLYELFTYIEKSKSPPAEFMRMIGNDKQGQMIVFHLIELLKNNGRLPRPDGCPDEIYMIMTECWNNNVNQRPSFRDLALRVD
isolated recombinant JAK1 kinase domain, sequence (P23458 875-1153): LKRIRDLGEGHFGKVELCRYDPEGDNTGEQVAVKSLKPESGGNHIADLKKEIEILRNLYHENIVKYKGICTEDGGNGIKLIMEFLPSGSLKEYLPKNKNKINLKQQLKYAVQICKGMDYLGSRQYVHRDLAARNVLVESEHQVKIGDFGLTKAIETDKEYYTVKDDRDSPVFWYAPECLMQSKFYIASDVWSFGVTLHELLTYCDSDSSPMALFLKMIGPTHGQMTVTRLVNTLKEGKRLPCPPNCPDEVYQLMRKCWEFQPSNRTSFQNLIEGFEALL

As to `N#CCC1(n2cc(C(N)=O)c(NC(=O)C3CC3)n2)CCN(Cc2ccc(-c3ccccc3F)cc2)CC1` [Example 142, 1-[4-(cyanomethyl)-1-[[4-(2-fluorophenyl)phenyl]methyl]-4-piperidyl]-3-(cyclopropanecarbonylamino) pyrazole-4-carboxamide], the inhibitory constant (Ki) in assay [1] (read-out: JAK1 Ki) was determined as 1.7 nM; in assay [2], 12.9 nM. Also, the IC50 in assay [3] (Homo sapiens, BEAS-2B) amounted to 60 nM.
On the same counts, the results for `N#CCC1(n2cc(C(N)=O)c(NC(=O)C3CC3)n2)CCN(Cc2ccc(C#CC3CC3)cc2)CC1` [Example 299, 1-(4-(Cyanomethyl)-1-(4-(cyclopropylethynyl)benzyl)piperidin-4-yl)-3-(cyclopropanecarboxamido)-1H-pyrazole-4-carboxamide] are 1.1 nM, 3 nM and 85 nM.
For `COC(=O)Nc1nn(C2(CC#N)CCN(Cc3ccc(C4=CCCCC4)cc3)CC2F)cc1C(N)=O` (stereo not drawn) [Example 257, methyl N-[4-carbamoyl-1-[4-(cyanomethyl)-1-[[4-(cyclohexen-1-yl)phenyl]methyl]-3-fluoro-4-piperidyl]pyrazol-3-yl]carbamate], the results for the Ki in assay [1] (read-out: JAK1 Ki) and in assay [2] were 0.73 nM and 1.3 nM, respectively. In addition, in assay [3] (Homo sapiens, BEAS-2B), the concentration for half-maximal inhibition (IC50) was determined as 52 nM.
Consider `N#CCC1(n2cc(C(N)=O)c(NC(=O)C3CC3C#N)n2)CCN(Cc2ccc(-c3ccccc3)cc2F)CC1F` (stereo not drawn) [Example 219, 3-[(2-cyanocyclopropanecarbonyl)amino]-1-[4-(cyanomethyl)-3-fluoro-1-[(2-fluoro-4-phenyl-phenyl)methyl]-4-piperidyl]pyrazole-4-carboxamide], for which the Ki is 1.7 nM in assay [1] (read-out: JAK1 Ki) and 3.6 nM in assay [2]. In addition, in assay [3], the concentration for half-maximal inhibition (IC50) was 68 nM.
`CS(=O)(=O)Nc1cccc(CN2CCC(CC#N)(n3cc(C(N)=O)c(NC(=O)C4CC4)n3)CC2)c1` [Example 45]: the Ki in assay [1] (read-out: JAK1 Ki) is 1.9 nM; in assay [2], 8.5 nM. Also, the IC50 in assay [3] (Homo sapiens, BEAS-2B) is over 1000 nM.
In the case of `CC(C)OC1(C(F)(F)F)CN([C@H]2CC[C@@](CC#N)(n3cc(C(N)=O)c(NC(=O)C4CC4)n3)CC2)C1` [Example 135], the Ki in assay [1] (read-out: JAK1 Ki) was 2.4 nM; in assay [2], 24.3 nM. In assay [3] (Homo sapiens, BEAS-2B), the IC50 was found to be 170 nM.
In the same order, the values of `N#CCC1(n2cc(C(N)=O)c(NC(=O)C3CC3)n2)CCC(Nc2ccc(-c3ccco3)cc2)CC1` (stereo not drawn) [Example 276, 1-[1-(cyanomethyl)-4-[4-(2-furyl)anilino]cyclohexyl]-3-(cyclopropanecarbonylamino) pyrazole-4-carboxamide] are 0.25 nM, 2.2 nM and 9 nM.
On the same counts, the results for `N#CC[C@]1(n2cc(C(N)=O)c(NC(=O)C3CC3)n2)CCN(Cc2ccccc2)C[C@@H]1F` [Example 164, 1-[1-benzyl-4-(cyanomethyl)-3-fluoro-4-piperidyl]-3-(cyclopropanecarbonylamino) pyrazole-4-carboxamide] are 2.7 nM, 9 nM and 275 nM.
In the same order, the values of `N#CCC1(n2cc(C(N)=O)c(NC(=O)C3CC3)n2)CCC(N2CC(F)(c3ccccc3)C2)CC1` (stereo not drawn) [Example 205, 1-[1-(cyanomethyl)-4-(3-fluoro-3-phenyl-azetidin-1-yl)cyclohexyl]-3-(cyclopropanecarbonylamino) pyrazole-4-carboxamide] are 0.89 nM, 5.9 nM and 82 nM.
On to `N#CCC1(n2cc(C(N)=O)c(NC(=O)C3CC3)n2)CCN(Cc2ccc3c(c2)[nH]c2ccccc23)CC1` [Example 95], for which the Ki in assay [1] (read-out: JAK1 Ki) worked out at 1.2 nM; in assay [2], 6.3 nM. The half-maximal inhibitory concentration (IC50) in assay [3] (Homo sapiens, BEAS-2B) turned out to be 275 nM.
On the same counts, the results for `COC(=O)Nc1nn(C2(CC#N)CCN(Cc3cc(O)c(Br)cc3Cl)CC2F)cc1C(N)=O` (stereo not drawn) [Example 296, methyl N-[1-[1-[(4-bromo-2-chloro-5-hydroxy-phenyl)methyl]-4-(cyanomethyl)-3-fluoro-4-piperidyl]-4-carbamoyl-pyrazol-3-yl]carbamate] are 0.56 nM, 0.59 nM and 52 nM.
On the same counts, the results for `N#CCC1(n2cc(C(N)=O)c(NC(=O)C3CC3)n2)CCN(Cc2ccc(-c3ccccc3)nc2F)CC1F` (stereo not drawn) [Example 201, 1-[4-(cyanomethyl)-3-fluoro-1-[(2-fluoro-6-phenyl-3-pyridyl)methyl]-4-piperidyl]-3-(cyclopropanecarbonylamino) pyrazole-4-carboxamide] are 0.24 nM, 0.23 nM and 23 nM.
In the same order, the values of `N#CCC1(n2cc(C(N)=O)c(NC(=O)C3CC3)n2)CCN(Cc2ccc(C3=CCCCC3)cc2)CC1F` (stereo not drawn) [Example 229, 1-[4-(cyanomethyl)-1-[[4-(cyclohexen-1-yl)phenyl]methyl]-3-fluoro-4-piperidyl]-3-(cyclopropanecarbonylamino) pyrazole-4-carboxamide] are 0.48 nM, 0.77 nM and 25 nM.
As to `N#CCC1(n2cc(C(N)=O)c(NC(=O)C3CC3)n2)CCN(C(=O)CCC(F)(F)F)CC1` [Example 169, 1-[4-(cyanomethyl)-1-(4,4,4-trifluorobutanoyl)-4-piperidyl]-3-(cyclopropanecarbonylamino) pyrazole-4-carboxamide], the Ki in assay [1] (read-out: JAK1 Ki) stood at 3.7 nM; in assay [2], 48.3 nM. Also, the IC50 in assay [3] (Homo sapiens, BEAS-2B) is over 1000 nM.
On the same counts, the results for `COC1(C(F)(F)F)CN([C@H]2CC[C@@](CC#N)(n3cc(C(N)=O)c(NC(=O)C4CC4)n3)CC2)C1` [Example 131] are 2.8 nM, 18.7 nM and 334 nM.
On the same counts, the results for `COC(=O)Nc1nn(C2(CC#N)CCN(Cc3ccc(-c4ccc(C)o4)c(O)c3)CC2F)cc1C(N)=O` (stereo not drawn) [Example 247, methyl N-[4-carbamoyl-1-[4-(cyanomethyl)-3-fluoro-1-[[3-hydroxy-4-(5-methyl-2-furyl)phenyl]methyl]-4-piperidyl]pyrazol-3-yl]carbamate] are 0.35 nM, 0.43 nM and 26 nM.
Turning to `N#CC[C@]1(n2cc(C(N)=O)c(NC(=O)C3CC3)n2)CC[C@H](NCC(F)(F)F)CC1` (single isomer, unassigned) [Example 2], the results for the inhibition constant (Ki) in assay [1] and in assay [2] were 1.2 nM and 6.1 nM, respectively. Moreover, the half-maximal inhibitory concentration (IC50) in assay [3] (Homo sapiens, BEAS-2B) is 373 nM.
For the compound `N#CCC1(n2cc(C(N)=O)c(NC(=O)C3CC3)n2)CCC(Nc2ccccc2Cl)CC1` (stereo not drawn) [Example 290, 1-[4-(2-chloroanilino)-1-(cyanomethyl)cyclohexyl]-3-(cyclopropanecarbonylamino) pyrazole-4-carboxamide], the Ki in assay [1] (read-out: JAK1 Ki) is 1.1 nM; in assay [2] it was 13 nM. For the same compound, the half-maximal inhibitory concentration (IC50) in assay [3] (Homo sapiens, BEAS-2B) turned out to be 82 nM.
`N#CCC1(n2cc(C(N)=O)c(NC(=O)C3CC3)n2)CCN(CC2CCC(c3ccccc3)CC2)CC1F` (stereo not drawn) [Example 234, 1-[4-(cyanomethyl)-3-fluoro-1-[(4-phenylcyclohexyl)methyl]-4-piperidyl]-3-(cyclopropanecarbonylamino) pyrazole-4-carboxamide]: the Ki in assay [1] (read-out: JAK1 Ki) was 0.27 nM; in assay [2], 1 nM. Moreover, the IC50 in assay [3] stood at 31 nM.
For `N#CCC1(n2cc(C(N)=O)c(NC(=O)C3CC3C#N)n2)CCN(Cc2ccc(-c3ccccc3)cc2)CC1F` (stereo not drawn) [Example 192, 3-[(2-cyanocyclopropanecarbonyl)amino]-1-[4-(cyanomethyl)-3-fluoro-1-[(4-phenylphenyl)methyl]-4-piperidyl]pyrazole-4-carboxamide], the results for the Ki in assay [1] (read-out: JAK1 Ki) and in assay [2] were 0.35 nM and 1.2 nM, respectively. Further, the concentration for half-maximal inhibition (IC50) in assay [3] (Homo sapiens, BEAS-2B) was found to be 28 nM.
